The term remaining activity denotes the activity still measured, relative to the control. A lower remaining activity goes with a large loss of activity. As usually defined, the GI50 is the concentration that inhibits growth by half. Lower therefore signals greater sensitivity of the cells. As usually defined, the DC50 is the concentration at which degradation of the target reaches its halfway point. Read a high DC50 as degradation only at high concentration. By IC50 is commonly meant the concentration that gives 50% inhibition. Read a high IC50 as weaker potency in that assay.

Data on five compounds can be found in patent US20260055114A1, “IMIDAZO[1,2-B]PYRIDAZINE INHIBITORS OF CYCLIN-DEPENDENT KINASES” (H. LEE MOFFITT CANCER CENTER AND RESEARCH INSTITUTE, INC., priority 2022, published 2026).

Test [1] deals with CDK12 (Homo sapiens, UniProt Q9NYV4). Nature of the test: Inhibition of cyclin-dependent kinase 12 (% enzyme activity at 1 uM and IC50). Type of test: biochemical. To be noted: for remaining activity at 1 µM: 1 uM compound.
CDK12, sequence (Q9NYV4 whole entry): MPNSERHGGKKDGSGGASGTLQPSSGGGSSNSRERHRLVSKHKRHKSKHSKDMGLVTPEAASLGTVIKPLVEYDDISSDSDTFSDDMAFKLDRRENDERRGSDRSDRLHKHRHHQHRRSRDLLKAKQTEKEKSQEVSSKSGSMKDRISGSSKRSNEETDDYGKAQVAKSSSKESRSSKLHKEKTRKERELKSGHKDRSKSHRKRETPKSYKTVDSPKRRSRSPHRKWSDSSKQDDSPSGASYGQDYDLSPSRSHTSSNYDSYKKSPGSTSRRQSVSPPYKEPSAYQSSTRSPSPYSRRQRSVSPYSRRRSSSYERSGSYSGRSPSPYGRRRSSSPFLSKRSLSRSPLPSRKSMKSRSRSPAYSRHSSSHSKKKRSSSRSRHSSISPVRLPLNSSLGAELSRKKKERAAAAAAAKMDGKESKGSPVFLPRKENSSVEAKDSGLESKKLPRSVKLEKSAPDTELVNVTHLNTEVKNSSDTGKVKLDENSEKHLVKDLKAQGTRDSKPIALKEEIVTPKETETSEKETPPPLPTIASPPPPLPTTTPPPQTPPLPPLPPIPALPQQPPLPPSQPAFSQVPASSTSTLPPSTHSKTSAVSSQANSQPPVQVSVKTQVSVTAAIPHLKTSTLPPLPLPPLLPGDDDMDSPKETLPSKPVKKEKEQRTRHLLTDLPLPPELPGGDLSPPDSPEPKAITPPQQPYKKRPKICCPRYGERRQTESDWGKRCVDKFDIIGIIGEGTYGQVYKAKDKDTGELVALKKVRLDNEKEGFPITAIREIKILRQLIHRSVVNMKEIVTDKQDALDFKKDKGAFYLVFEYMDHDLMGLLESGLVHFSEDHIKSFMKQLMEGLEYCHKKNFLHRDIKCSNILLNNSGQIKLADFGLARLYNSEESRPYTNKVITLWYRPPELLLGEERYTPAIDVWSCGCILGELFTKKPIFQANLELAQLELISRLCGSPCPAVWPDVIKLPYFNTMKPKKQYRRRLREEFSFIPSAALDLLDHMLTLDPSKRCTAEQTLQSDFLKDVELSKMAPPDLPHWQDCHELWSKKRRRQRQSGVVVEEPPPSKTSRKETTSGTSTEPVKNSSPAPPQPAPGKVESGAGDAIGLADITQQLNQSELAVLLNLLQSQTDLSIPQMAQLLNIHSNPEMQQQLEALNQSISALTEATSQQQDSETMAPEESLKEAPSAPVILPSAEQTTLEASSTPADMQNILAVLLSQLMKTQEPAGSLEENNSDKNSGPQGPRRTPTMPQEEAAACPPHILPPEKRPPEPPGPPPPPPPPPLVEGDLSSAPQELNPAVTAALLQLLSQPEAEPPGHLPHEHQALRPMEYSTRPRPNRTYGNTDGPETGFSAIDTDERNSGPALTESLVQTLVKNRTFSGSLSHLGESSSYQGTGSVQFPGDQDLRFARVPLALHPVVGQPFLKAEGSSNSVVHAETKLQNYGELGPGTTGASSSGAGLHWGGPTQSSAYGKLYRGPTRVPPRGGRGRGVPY
CDK12, sequence (O75909 whole entry partner): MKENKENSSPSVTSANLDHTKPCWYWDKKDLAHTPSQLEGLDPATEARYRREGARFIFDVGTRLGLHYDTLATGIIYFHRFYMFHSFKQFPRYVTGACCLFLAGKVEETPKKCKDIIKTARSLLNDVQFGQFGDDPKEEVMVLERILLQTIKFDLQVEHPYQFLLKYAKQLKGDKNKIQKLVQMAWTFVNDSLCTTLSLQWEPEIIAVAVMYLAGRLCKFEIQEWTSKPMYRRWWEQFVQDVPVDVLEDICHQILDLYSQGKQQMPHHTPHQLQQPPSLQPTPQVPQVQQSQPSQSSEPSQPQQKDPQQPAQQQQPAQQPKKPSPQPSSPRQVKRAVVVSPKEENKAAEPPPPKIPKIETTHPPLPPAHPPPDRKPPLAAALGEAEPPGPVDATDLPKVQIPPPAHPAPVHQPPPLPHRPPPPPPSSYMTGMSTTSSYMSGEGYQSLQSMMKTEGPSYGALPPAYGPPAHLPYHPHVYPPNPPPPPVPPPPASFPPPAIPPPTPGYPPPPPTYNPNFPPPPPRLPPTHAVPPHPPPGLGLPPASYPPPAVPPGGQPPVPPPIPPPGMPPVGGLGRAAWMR
The subject of test [2] is MDA-MB-231 cell line. Nature of the test: Antiproliferative activity, MDA-MB-231 cell line (GI50). It counts as cell-based. To be noted: Homo sapiens.
For test [3], the system named is CCNK. Nature of the test: CCNK degradation (DC50, Dmax). It counts as cell-based. To be noted: for Dmax (%): CCNK degradation.

Consider `Cc1cc(-c2cnc3c(NCc4nc5c(F)cccc5[nH]4)cc(N4CCOCC4)nn23)cs1` [Cmpd 94, N-((4-fluoro-1H-benzo[d]imidazol-2-yl)methyl)-3-(5-methylthiophen-3-yl)-6-morpholinoimidazo[1,2-b]pyridazin-8-amine], for which, in test [1], the remaining activity at 1 µM is 70%. The GI50 in test [2] worked out at 1500 nM. In addition, in test [3], half-maximal degradation (DC50) was put at 1000 nM and the “Dmax (%)” value worked out at 80%.
In test [1], `Cc1cc(-c2cnc3c(NCc4nc5c(F)c(F)ccc5[nH]4)cc(N4CCN(C)CC4)nn23)cs1` [Cmpd 96, N-((4,5-difluoro-1H-benzo[d]imidazol-2-yl)methyl)-6-(4-methylpiperazin-1-yl)-3-(5-methylthiophen-3-yl) imidazo[1,2-b]pyridazin-8-amine] displayed a remaining activity at 1 µM of 63%. The same compound had a 50% growth inhibitory concentration (GI50) in test [2] of 3110 nM. Besides, in test [3], the DC50 was found to be 1800 nM and the “Dmax (%)” value was determined as 75%.
Compound `Cc1cc(-c2cnc3c(NCc4nc5c(F)c(F)ccc5[nH]4)cc(N4CCOCC4)nn23)cs1` [Cmpd 97, N-((4,5-difluoro-1H-benzo[d]imidazol-2-yl)methyl)-3-(5-methylthiophen-3-yl)-6-morpholinoimidazo[1,2-b]pyridazin-8-amine] returned a remaining activity at 1 µM in test [1] of 79%. Besides, the 50% growth inhibitory concentration (GI50) in test [2] is 10000 nM. Moreover, in test [3], half-maximal degradation (DC50) was put at 1300 nM and the “Dmax (%)” value came to 75%.
In test [1], `Cc1noc(C)c1-c1cnc2c(NCc3nc4cc(Cl)c(Cl)cc4[nH]3)cc(N3CCN(C)CC3)nn12` [Cmpd 99, N-((5,6-dichloro-1H-benzo[d]imidazol-2-yl)methyl)-3-(3,5-dimethylisoxazol-4-yl)-6-(4-methylpiperazin-1-yl) imidazo[1,2-b]pyridazin-8-amine] had an IC50 of 1250 nM and a remaining activity at 1 µM of 59%. In test [2], this compound came in with a 50% growth inhibitory concentration (GI50) of 689 nM. The DC50 in test [3] came out at 10000 nM.
With `Cc1noc(C)c1-c1cnc2c(NCc3nc4cc(Cl)c(Cl)cc4[nH]3)cc(N3CCOCC3)nn12` [Cmpd 100, N-((5,6-dichloro-1H-benzo[d]imidazol-2-yl)methyl)-3-(3,5-dimethylisoxazol-4-yl)-6-morpholinoimidazo[1,2-b]pyridazin-8-amine], in test [1], the concentration for half-maximal inhibition (IC50) was 3000 nM and the remaining activity at 1 µM came to 73%. This compound gave a 50% growth inhibitory concentration (GI50) in test [2] of 2030 nM. In test [3], this compound yielded a 50% degradation concentration (DC50) of 10000 nM.
